Assay results from PubChem BioAssay (NCI).
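Assay format: 96-well plates, 48-hour exposure. GI50 is the concentration that inhibits growth by half. At the TGI there is no net growth.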

Experiments:
Test in all cases: NCI tumour cell line growth inhibition, 48 h
ACHN renal = system: ACHN renal
MDA-MB-435 = system: MDA-MB-435
T-47D breast = system: T-47D breast
SK-MEL-2 melanoma = system: SK-MEL-2 melanoma
OVCAR-5 ovarian = system: OVCAR-5 ovarian
SK-MEL-28 melanoma = system: SK-MEL-28 melanoma
HS 578T breast = system: HS 578T breast
SW-620 colon = system: SW-620 colon
HOP-62 NSCLC = system: HOP-62 NSCLC
MCF7 breast = system: MCF7 breast

| SMILES | GI50 (ACHN renal) [µM] | TGI (ACHN renal) [µM] | GI50 (MDA-MB-435) [µM] | TGI (MDA-MB-435) [µM] | GI50 (T-47D breast) [µM] | TGI (T-47D breast) [µM] | GI50 (SK-MEL-2 melanoma) [µM] | TGI (SK-MEL-2 melanoma) [µM] | GI50 (OVCAR-5 ovarian) [µM] | TGI (OVCAR-5 ovarian) [µM] | GI50 (SK-MEL-28 melanoma) [µM] | TGI (SK-MEL-28 melanoma) [µM] | GI50 (HS 578T breast) [µM] | TGI (HS 578T breast) [µM] | GI50 (SW-620 colon) [µM] | TGI (SW-620 colon) [µM] | GI50 (HOP-62 NSCLC) [µM] | TGI (HOP-62 NSCLC) [µM] | TGI (MCF7 breast) [µM] | GI50 (MCF7 breast) [µM] |
| --- | --- | --- | --- | --- | --- | --- | --- | --- | --- | --- | --- | --- | --- | --- | --- | --- | --- | --- | --- | --- |
| Cc1cc[c]([Sb]2[O]C(CO)C(C(O)C(O)C(=O)O)[O]2)cc1 (centres undefined) | > 100 | > 100 | 81.7 | > 100 | > 100 | > 100 | 21.4 | 45.5 | 29.2 | 75.2 | 39.6 | > 100 | 87.7 | > 100 | > 100 | > 100 | 45.2 | > 100 |  |  |
| O=NN(CC1(O)OCC(O)C(O)C1O)C(Cc1c[nH]c2ccccc12)C(=O)O (centres undefined) |  | > 100 |  |  |  |  |  | > 100 |  | > 100 |  | > 100 |  |  |  | > 100 |  | > 100 |  |  |
| CCO/C(O)=c1/s/c(=C2/SC(=S)N(c3ccc(C)cc3)C2=O)n(-c2ccccc2)c1=N |  | > 100 |  | > 100 |  |  |  | > 100 |  | > 100 |  | > 76.5 |  | 66.8 |  | > 100 |  | 81.9 | > 100 |  |
| COc1ccc(C(O)C(c2ccc(OCc3ccccc3)cc2)c2ccc(OCc3ccccc3)cc2)cc1 (centres undefined) |  | > 100 |  |  |  |  |  | > 100 |  | > 100 |  | > 100 |  |  |  | > 100 |  | > 100 |  |  |
| O=C1/C(=C/c2cc(O)c(O)c(O)c2)Oc2cc(O)cc(OC3OC(CO)C(O)C(O)C3O)c21 (centres undefined) |  | 25.7 |  |  |  |  |  | 47.7 |  |  |  | > 100 |  |  |  | 58.3 |  |  |  |  |
| CSC(=Nc1ccc([N+](=O)[O-])cc1C#N)NC(=O)c1ccccc1 |  | > 100 |  |  |  |  |  |  |  | > 100 |  | > 100 |  |  |  | > 100 |  | > 100 |  |  |
| COc1ccc2c(c1)c(-c1ccc(-c3cn(C)c4ccc(OC)cc34)s1)cn2C | > 100 | > 100 | > 100 | > 100 |  |  | > 100 | > 100 | > 100 | > 100 | > 100 | > 100 | > 100 | > 100 | > 100 | > 100 | > 100 | > 100 | > 100 | > 100 |
| Cc1cc2c(cc1Cl)SC(=Nc1ccc(Cl)cc1)N(S(=O)(=O)c1ccc(Br)s1)S2(=O)=O | 9.05 | 21.1 | 14.1 | 31.3 |  |  | 35.3 | > 100 | 15.7 | 34.1 | 24.6 | > 100 | 25.3 | 62.2 | 24.5 | > 100 | 17.8 | 37.4 | > 100 | 46.3 |
| COc1ccc(-c2nn3ncccc3c2-c2ccnc(Nc3ccc(F)c(F)c3)n2)cc1 | 10.4 | > 25 | 7.39 | > 25 | 6.42 | > 25 |  |  | 11.6 | > 25 | 17.8 | > 25 | 9.2 | > 25 | 17 | > 25 | 14.1 | > 25 | > 25 | 10.6 |
| COc1ccc(-c2cc(=O)c3c(C)ccnc3[nH]2)cc1 |  | > 100 |  |  |  | > 100 |  | 28.1 |  | 68.4 |  | > 100 |  | 77.1 |  | > 100 |  | 92.4 | > 100 |  |
| CCN(CC)CCN1C(=O)C2C3C(C)=CC(OC(C)=O)(CC3C)C2C1=O (centres undefined) | > 100 | > 100 | > 100 | > 100 | > 100 | > 100 | > 100 | > 100 | > 100 | > 100 |  |  | 75.3 | > 100 | > 100 | > 100 | > 100 | > 100 |  |  |
| O=c1c2ccccc2c(=O)n2n1-c1cccc(c1)CSSCc1cccc-2c1 | > 100 | > 100 |  |  |  |  | > 100 | > 100 | > 100 | > 100 | > 100 | > 100 |  |  | > 100 | > 100 | > 100 | > 100 |  |  |
| CCN(CC)CC(C(=O)Nc1c(C)cccc1C)/C(C)=N\NC(=S)NN (centres undefined) |  | > 100 |  |  |  |  |  | > 100 |  | > 100 |  | > 100 |  |  |  | > 100 |  | > 100 |  |  |
| O=C1CN=C(c2ccccc2)c2ccncc2N1 |  | > 100 |  |  |  |  |  | > 100 |  | > 100 |  | > 100 |  |  |  | > 100 |  | > 100 |  |  |
| Clc1ccc2c(NC3CCC(NC4CCCCC4)CC3)ccnc2c1 (centres undefined) | 4.85 | 17.1 | 2.11 | 5.51 | 3.42 | 17.7 | 1.97 | 3.95 | 18.5 | 54.4 | 1.79 | 3.3 |  |  | 1.92 | 4.19 |  |  | 11 | 2.49 |
| CCOP(=O)(OCC)C(C(=O)OC)C(=O)C(=O)Nc1cccc([N+](=O)[O-])c1 (centres undefined) |  | > 100 |  |  |  |  |  | > 100 |  | > 100 |  | > 100 |  |  |  | > 100 |  | > 100 |  |  |
| CC(C)N1CCOC(c2ccc(O)c(O)c2)C1 (centres undefined) |  | > 100 |  |  |  |  |  | > 100 |  | > 100 |  | > 100 |  |  |  | > 100 |  | > 100 |  |  |
| CC(NC(=O)c1ccc(Cl)c(Cl)c1)c1ccc(-c2ccccc2)cc1 (centres undefined) |  | > 100 |  | > 100 |  |  |  | > 100 |  | > 100 |  | > 100 |  | 65.1 |  | > 100 |  | 54.5 | > 100 |  |
| CC1COS(=O)N1c1ccccc1 (centres undefined) |  | > 100 |  |  |  |  |  | > 100 |  | > 100 |  | > 100 |  |  |  | > 100 |  | > 100 |  |  |
